Reference: ChEMBL document CHEMBL4402529, “Immunoproteasome-selective inhibitors: An overview of recent developments as potential drugs for hematologic malignancies and autoimmune diseases” (Eur J Med Chem, 2019)
Values belong to the compound of their own block, whether it stands above or below them.

Experiments:
[1] = molecular target: T1, Proteasome subunit beta type-8 (Homo sapiens, UniProt P28062); assay: Inhibition of 20S proteasome beta 5i (unknown origin) after 1 hr by cell based assay
T1 sequence (P28062 whole entry): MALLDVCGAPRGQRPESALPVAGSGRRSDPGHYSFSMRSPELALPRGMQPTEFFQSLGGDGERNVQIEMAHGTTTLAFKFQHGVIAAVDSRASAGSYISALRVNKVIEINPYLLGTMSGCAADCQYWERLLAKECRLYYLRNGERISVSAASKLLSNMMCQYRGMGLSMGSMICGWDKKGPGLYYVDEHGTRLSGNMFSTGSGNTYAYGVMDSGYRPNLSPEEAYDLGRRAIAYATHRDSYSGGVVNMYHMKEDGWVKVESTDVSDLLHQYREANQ

[2] = molecular target: T2, Proteasome Macropain subunit MB1 (Homo sapiens, UniProt P28074); assay: Inhibition of 20S proteasome beta 5c (unknown origin) after 1 hr by cell based assay
T2 sequence (P28074 whole entry): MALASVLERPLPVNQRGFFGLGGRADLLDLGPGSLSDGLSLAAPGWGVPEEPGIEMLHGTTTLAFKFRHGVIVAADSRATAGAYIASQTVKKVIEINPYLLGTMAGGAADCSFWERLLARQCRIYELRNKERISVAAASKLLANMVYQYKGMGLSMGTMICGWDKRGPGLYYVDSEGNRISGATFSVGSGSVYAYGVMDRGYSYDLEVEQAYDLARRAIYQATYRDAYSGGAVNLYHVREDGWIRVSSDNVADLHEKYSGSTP

Homo sapiens [3] = species on record: Homo sapiens; assay: Selectivity index, ratio of IC50 for 20S proteasome beta 5c (unknown origin) to IC50 for 20S proteasome beta 5i (unknown origin)
Homo sapiens [4] = species on record: Homo sapiens; assay: Selectivity index, ratio of IC50 for 20S proteasome beta 1c (unknown origin) to IC50 for 20S proteasome beta 1i (unknown origin)
[5] = molecular target: T2, Proteasome Macropain subunit MB1; assay: Inhibition of 20S proteasome beta 5c (unknown origin) after 1 hr by fluorescence based assay
[6] = molecular target: T1, Proteasome subunit beta type-8; assay: Inhibition of 20S proteasome beta 5i (unknown origin) after 1 hr by fluorescence based assay
Homo sapiens [7] = species on record: Homo sapiens; assay: Selectivity index, ratio of IC50 for 20S proteasome beta 2c (unknown origin) to IC50 for 20S proteasome beta 2i (unknown origin)
[8] = molecular target: T1, Proteasome subunit beta type-8; assay: Inhibition of human 20S proteasome beta 5i
[9] = molecular target: T2, Proteasome Macropain subunit MB1; assay: Inhibition of human 20S proteasome beta 5c
Homo sapiens [10] = species on record: Homo sapiens; assay: Selectivity index, ratio of IC50 for human 20S proteasome beta 5c to IC50 for human 20S proteasome beta 5i
[11] = molecular target: T3, Proteasome subunit beta type-9 (Homo sapiens, UniProt P28065); assay: Inhibition of 20S proteasome beta 1i (unknown origin)
T3 sequence (P28065 whole entry): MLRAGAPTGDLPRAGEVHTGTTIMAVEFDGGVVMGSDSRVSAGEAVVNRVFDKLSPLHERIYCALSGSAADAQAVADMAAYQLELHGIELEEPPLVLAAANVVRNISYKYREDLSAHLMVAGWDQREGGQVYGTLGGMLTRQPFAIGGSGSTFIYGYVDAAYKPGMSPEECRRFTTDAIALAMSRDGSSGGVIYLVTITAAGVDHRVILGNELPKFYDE

[12] = Inhibition of 20S proteasome beta 2c (unknown origin)
[13] = molecular target: T3, Proteasome subunit beta type-9; assay: Inhibition of 20S proteasome beta 1i (unknown origin) after 1 hr by fluorescence based assay
[14] = molecular target: T4, Proteasome subunit beta type-10 (Homo sapiens, UniProt P40306); assay: Inhibition of 20S proteasome beta 2i (unknown origin) after 1 hr by fluorescence based assay
T4 sequence (P40306 whole entry): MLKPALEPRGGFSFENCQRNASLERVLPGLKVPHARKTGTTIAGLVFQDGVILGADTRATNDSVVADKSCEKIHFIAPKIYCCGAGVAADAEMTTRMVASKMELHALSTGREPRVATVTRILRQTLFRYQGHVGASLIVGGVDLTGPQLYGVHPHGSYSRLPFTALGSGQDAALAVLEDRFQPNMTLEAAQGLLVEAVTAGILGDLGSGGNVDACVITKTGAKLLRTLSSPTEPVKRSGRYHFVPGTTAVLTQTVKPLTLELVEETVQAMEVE

- IC50 [8]: 13 nM
- IC50 [9]: 1070 nM
- Ratio IC50 (Homo sapiens [10]): 83
SMILES: Cc1c(C2CCCC2)c(=O)oc2cc3occ(-c4ccccc4)c3cc12

- IC50 [8]: 120 nM
- Ratio IC50 (Homo sapiens [10]): > 80
SMILES: Cc1c(Cc2nsc(=O)o2)c(=O)oc2cc3occ(-c4ccccc4)c3cc12

- Ratio IC50 (Homo sapiens [3]): 28
SMILES: Cc1ccc(S(=O)(=O)N[C@@H](CC(=O)NC(C)(C)C)C(=O)NCCNC(=O)c2cc(-c3ccccc3F)ccc2F)cc1

- IC50 [8]: 9 nM
- IC50 [9]: 220 nM
- Ratio IC50 (Homo sapiens [10]): 24
SMILES: Cc1c(CCC(=O)ON2C(=O)CCC2=O)c(=O)oc2cc3occ(-c4ccccc4)c3cc12

- IC50 [8]: 1600 nM
- IC50 [9]: 172000 nM
- Ratio IC50 (Homo sapiens [10]): 108
SMILES: Cc1c(CCC(=O)O)c(=O)oc2cc3occ(-c4ccccc4)c3cc12

- IC50 [5]: 3 to 20 nM
- IC50 [6]: 3 to 20 nM
- IC50 [13]: 1 to 3 nM
- IC50 [14]: 10 to 30 nM
SMILES: CC(C)C[C@H](NC(=O)[C@@H](NC(=O)c1cccc(-c2ccccc2)n1)[C@@H](C)O)B(O)O [DELANZOMIB]

Continued, compound first:

SMILES: Cc1ccc(S(=O)(=O)N[C@H](CC(=O)N[C@@H](C)C(=O)NCc2cccc3ccccc23)CC(=O)NC(C)(C)C)cc1
- IC50 [1]: 14 nM
- IC50 [2]: 78200 nM
- Ratio IC50 (Homo sapiens [3]): 5600

SMILES: COc1ccc([C@@H](O)[C@H](NC(=O)[C@H](C)NC(=O)CN2CCOCC2)C(=O)N[C@@H](CC2=CCCC2)C(=O)[C@@]2(C)CO2)cc1 [ZETOMIPZOMIB]
- Ratio IC50 (Homo sapiens [4]): 0.97
- IC50 [5]: 688 nM
- IC50 [6]: 39 nM
- Ratio IC50 (Homo sapiens [7]): > 80.9
- Ratio IC50 (Homo sapiens [3]): 17.6

SMILES: Cc1ccc(S(=O)(=O)N[C@@H](CC(=O)NC(C)(C)C)C(=O)N[C@@H](C)CC(=O)NCc2cccc3ccccc23)cc1
- IC50 [1]: 5.5 nM
- IC50 [2]: 74900 nM
- Ratio IC50 (Homo sapiens [3]): 13600

SMILES: COc1ccc(C[C@H](NC(=O)[C@@H](C)NC(=O)[C@H]2CC[C@H](O)CC2)C(=O)N[C@@H](CC2=CCCC2)C(=O)[C@@]2(C)CO2)cc1
- Ratio IC50 (Homo sapiens [4]): > 14
- Ratio IC50 (Homo sapiens [3]): 79

SMILES: CC(C)(C)NC(=O)C[C@H](NS(=O)(=O)C1CC1)C(=O)NCCNC(=O)c1cc(-c2ccccc2F)ccc1F
- Ratio IC50 (Homo sapiens [3]): 64

SMILES: CC(C)C[C@H](NC(=O)CN1CCCCCC1)C(=O)N[C@@H](Cc1ccccc1)C(=O)N[C@@H](Cc1ccccc1)C(=O)[C@@]1(C)CO1
- Ratio IC50 (Homo sapiens [4]): > 602
- IC50 [11]: 425 nM
- IC50 [12]: 81 nM
- Ratio IC50 (Homo sapiens [3]): 0.8

SMILES: C[C@@H](CC(=O)NCc1cccc2ccccc12)NC(=O)[C@H](CC(=O)NC(C)(C)C)NC(=O)CCc1ccccc1
- IC50 [1]: 57 nM
- IC50 [2]: 76000 nM
- Ratio IC50 (Homo sapiens [3]): 1330
